System: HCI-027 (organoid from a triple-negative breast cancer xenograft)
Assay: CTG-3D luminescence at 96 h relative to day-0 seeding control (ratio to day 0); higher = more growth / less cytotoxicity; PDxO 3D drug screen, 96 h, CTG-3D normalised to day-0 seeding control.
Settings: 10 µM; days in culture: 194

Compound | CTG-3D luminescence at 96 h
O=C(O)C1(C(=O)O)CCC1.[NH2-].[NH2-].[Pt+2] [carboplatin] | 1.91
COc1cc2c(Oc3ccc4[nH]c(C)cc4c3F)ncnc2cc1OCCCN1CCCC1 [cediranib] | 0.0281
C[C@@H]1COCCN1c1cc(C2([S@](C)(=N)=O)CC2)nc(-c2cc[nH]c3nccc2-3)n1 [ceralasertib] | 0.111
Cc1cc(Nc2ncc(Cl)c(Nc3ccccc3S(=O)(=O)C(C)C)n2)c(OC(C)C)cc1C1CCNCC1 [ceritinib] | 0.0105
O=C(c1ccc(F)c(F)c1Nc1ccc(I)cc1F)N1CC(O)([C@@H]2CCCCN2)C1 [cobimetinib] | 0.796
C[C@H](NC(=O)CCC(F)(F)F)C(=O)N[C@@H]1C(=O)N(CCO)c2ncccc2-c2ccccc21 [crenigacestat] | 0.312
COc1cccc2c1C(=O)c1c(O)c3c(c(O)c1C2=O)C[C@@](O)(C(=O)CO)C[C@@H]3O[C@H]1C[C@H](N)[C@H](O)[C@H](C)O1 [doxorubicin] | 0.0259
C[C@]12CC[C@@H]3c4ccc(O)cc4C[C@@H](CCCCCCCCC[S+]([O-])CCCC(F)(F)C(F)(F)F)[C@H]3[C@@H]1CC[C@@H]2O (stereo partly specified) [fulvestrant] | 2.05
Nc1ccn([C@@H]2O[C@H](CO)[C@@H](O)C2(F)F)c(=O)n1 [gemcitabine] | 0.28

Same assay, conditions: 10 µM; days in culture: 201

Compound | CTG-3D luminescence at 96 h
O=C(O)C1(C(=O)O)CCC1.[NH2-].[NH2-].[Pt+2] [carboplatin] | 1.53
COc1cc2c(Oc3ccc4[nH]c(C)cc4c3F)ncnc2cc1OCCCN1CCCC1 [cediranib] | 0.0302
C[C@@H]1COCCN1c1cc(C2([S@](C)(=N)=O)CC2)nc(-c2cc[nH]c3nccc2-3)n1 [ceralasertib] | 0.134
Cc1cc(Nc2ncc(Cl)c(Nc3ccccc3S(=O)(=O)C(C)C)n2)c(OC(C)C)cc1C1CCNCC1 [ceritinib] | 0.0089
O=C(c1ccc(F)c(F)c1Nc1ccc(I)cc1F)N1CC(O)([C@@H]2CCCCN2)C1 [cobimetinib] | 0.365
C[C@H](NC(=O)CCC(F)(F)F)C(=O)N[C@@H]1C(=O)N(CCO)c2ncccc2-c2ccccc21 [crenigacestat] | 0.258
COc1cccc2c1C(=O)c1c(O)c3c(c(O)c1C2=O)C[C@@](O)(C(=O)CO)C[C@@H]3O[C@H]1C[C@H](N)[C@H](O)[C@H](C)O1 [doxorubicin] | 0.0267
C[C@]12CC[C@@H]3c4ccc(O)cc4C[C@@H](CCCCCCCCC[S+]([O-])CCCC(F)(F)C(F)(F)F)[C@H]3[C@@H]1CC[C@@H]2O (stereo partly specified) [fulvestrant] | 2.01
Nc1ccn([C@@H]2O[C@H](CO)[C@@H](O)C2(F)F)c(=O)n1 [gemcitabine] | 0.21

Same assay, conditions: 100 µM; days in culture: 176

Compound | CTG-3D luminescence at 96 h
O=C(O)C1(C(=O)O)CCC1.[NH2-].[NH2-].[Pt+2] [carboplatin] | 0.0917
COc1cc2c(Oc3ccc4[nH]c(C)cc4c3F)ncnc2cc1OCCCN1CCCC1 [cediranib] | -0.00276
C[C@@H]1COCCN1c1cc(C2([S@](C)(=N)=O)CC2)nc(-c2cc[nH]c3nccc2-3)n1 [ceralasertib] | 0.29
Cc1cc(Nc2ncc(Cl)c(Nc3ccccc3S(=O)(=O)C(C)C)n2)c(OC(C)C)cc1C1CCNCC1 [ceritinib] | -0.00642
O=C(c1ccc(F)c(F)c1Nc1ccc(I)cc1F)N1CC(O)([C@@H]2CCCCN2)C1 [cobimetinib] | 0.0169
C[C@H](NC(=O)CCC(F)(F)F)C(=O)N[C@@H]1C(=O)N(CCO)c2ncccc2-c2ccccc21 [crenigacestat] | 0.335
COc1cccc2c1C(=O)c1c(O)c3c(c(O)c1C2=O)C[C@@](O)(C(=O)CO)C[C@@H]3O[C@H]1C[C@H](N)[C@H](O)[C@H](C)O1 [doxorubicin] | 0.0148
C[C@]12CC[C@@H]3c4ccc(O)cc4C[C@@H](CCCCCCCCC[S+]([O-])CCCC(F)(F)C(F)(F)F)[C@H]3[C@@H]1CC[C@@H]2O (stereo partly specified) [fulvestrant] | 2.18
Nc1ccn([C@@H]2O[C@H](CO)[C@@H](O)C2(F)F)c(=O)n1 [gemcitabine] | 0.25

Same assay, conditions: 100 µM; days in culture: 194

Compound | CTG-3D luminescence at 96 h
O=C(O)C1(C(=O)O)CCC1.[NH2-].[NH2-].[Pt+2] [carboplatin] | 0.181
COc1cc2c(Oc3ccc4[nH]c(C)cc4c3F)ncnc2cc1OCCCN1CCCC1 [cediranib] | -0.00212
C[C@@H]1COCCN1c1cc(C2([S@](C)(=N)=O)CC2)nc(-c2cc[nH]c3nccc2-3)n1 [ceralasertib] | 0.232
Cc1cc(Nc2ncc(Cl)c(Nc3ccccc3S(=O)(=O)C(C)C)n2)c(OC(C)C)cc1C1CCNCC1 [ceritinib] | -0.00633
O=C(c1ccc(F)c(F)c1Nc1ccc(I)cc1F)N1CC(O)([C@@H]2CCCCN2)C1 [cobimetinib] | 0.014
C[C@H](NC(=O)CCC(F)(F)F)C(=O)N[C@@H]1C(=O)N(CCO)c2ncccc2-c2ccccc21 [crenigacestat] | 0.344
COc1cccc2c1C(=O)c1c(O)c3c(c(O)c1C2=O)C[C@@](O)(C(=O)CO)C[C@@H]3O[C@H]1C[C@H](N)[C@H](O)[C@H](C)O1 [doxorubicin] | 0.0261
C[C@]12CC[C@@H]3c4ccc(O)cc4C[C@@H](CCCCCCCCC[S+]([O-])CCCC(F)(F)C(F)(F)F)[C@H]3[C@@H]1CC[C@@H]2O (stereo partly specified) [fulvestrant] | 2.15
Nc1ccn([C@@H]2O[C@H](CO)[C@@H](O)C2(F)F)c(=O)n1 [gemcitabine] | 0.115

From the supplement of paper PMC8882468
